In brackets after ≈: the same amount, converted by molar mass. Read-outs that look alike come from different tables or passages of the source.
Legend:
Caco-2 permeability = format: in vitro ADME; conditions: human; for Papp A→B: AtoB; for Papp B→A: BtoA
Description: Several model systems are available, employing monolayers of various cell types, for evaluation of active transport of pharmaceutically active substances. For example, monolayers of Caco-2 intestinal epithelial cells can be used to evaluate active transport of substances between the intestine and the bloodstream. When plated on a surface which allows the flow of material from apical to basolateral and vice versa, such cells form a biological membrane which can be used to simulate physiological absorption and bio-availability. In another example, mouse brain capillary endothelial cell (MBEC) lines have been established to evaluate active transport in and out of the central nervous system. Another example of such cells is HT29 human colon carcinoma cells. Further, monolayers expressing particular transporter proteins can be established using transfected cells. For example, Sasaki et al (2002) J. Biol. Chem. 8:6497 used a double-transfected Madin-Darby canine kidney cell monolayer to study transport of organic anions.

PDE-3 = experiment: Phosphodiesterase inhibition PDE-3; format: biochemical
Experimental: (§1) Phosphodiesterase inhibition was determined by methods known to one of skill in the art.

PDE-1 = experiment: Phosphodiesterase inhibition PDE-1; format: biochemical
Experimental: as §1

PDE-6 = experiment: Phosphodiesterase inhibition PDE-6; format: biochemical
Experimental: as §1

Non-specific binding = format: in vitro ADME
Solubility = format: physicochemical
PAMPA permeability = format: in vitro ADME; conditions: for Papp: PAMPA
Protein binding = format: in vitro ADME; conditions: human, human serum components
Experimental: In general, protein binding is assessed by measuring the capacity of molecules of the invention to bind to one or more human serum components or mimics thereof. In one embodiment, suitable functional residues may be identified by screening of surfaces comprising such residues for their ability to resist adsorption of serum components, including, but not limited to serum proteins, and preferably human serum proteins. Candidate residues can be screened directly by attaching them to a solid support and testing the support for protein resistance. Alternatively, candidate residues are incorporated into, or linked to molecules of pharmaceutical interest. Such compounds may be synthesized on a solid support, or bound to a solid support after synthesis. In a non-limiting example of a direct binding assay, immobilized candidate functional residues or molecules incorporating such residues are tested for their ability to bind serum components. The serum components can be labeled with a signaling moiety for detection, or a labeled secondary reagent that binds to such serum components can be used.

Cytotoxicity GC50 = format: cell-based
PDE5 [1] = target: T1, PDE5 (Homo sapiens, UniProt O76074); experiment: Phosphodiesterase inhibition IC50 (Table 1); format: biochemical; conditions: PDE5 inhibitor scaffold Compound B
Experimental: as §1

PDE5 [2] = target: T1, PDE5; experiment: Phosphodiesterase inhibition PDE-5 human; format: biochemical
Experimental: as §1

Cytotoxicity LC50 = format: cell-based; conditions: Chronic; read-out: Cytotox LC50 Chronic
RLM half-life = format: in vitro ADME; conditions: rat, liver microsomes, read-out: RLM T1/2
[3] = pH 2.7, aqueous buffer, pH 2.7, read-out: Solubility pH 2.7
[4] = pH 7.4, aqueous buffer, pH 7.4, read-out: Solubility pH 7.4

Row | Compound | Papp A→B (Caco-2 permeability) [×10⁻⁶ cm/s] | Papp B→A (Caco-2 permeability) [×10⁻⁶ cm/s] | IC50 (PDE-3) [nM] | IC50 (PDE-1) [nM] | IC50 (PDE-6) [nM] | Non-Spec Binding (Non-specific binding) [%] | solubility (Solubility; [3]) [µg/mL] | solubility (Solubility; [4]) [µg/mL] | Papp (PAMPA permeability; Hex, read-out: PAMPA Hex) [×10⁻⁶ cm/s] | Papp (PAMPA permeability; Lec, read-out: PAMPA Lec) [×10⁻⁶ cm/s] | fraction unbound (Protein binding) | Cytotox GC50 (Cytotoxicity GC50) [nM] | IC50 (PDE5 [1]) [nM] | IC50 (PDE5 [2]) [nM] | CC50 (Cytotoxicity LC50) [nM] | Solubility pH 2.7 (Solubility; pH 2.7) [ug/mL] | Solubility pH 7.4 (Solubility; pH 7.4) [ug/mL] | PAMPA Hex (PAMPA permeability; Hex) | half-life (RLM half-life) [h]
1 | CCCc1nc(C)c2c(=O)[nH]c(-c3cc(S(=O)(=O)N(C)CC(=O)N(C)CC(=O)N(C)C)ccc3OCC)nn12 [Compound 4] | 2.97 | 25.9 | – | – | – | 7 | 112 (≈ 199 µM) | 109 (≈ 194 µM) | 0.47 | 0.056 | 0.18 | – | – | – | – | – | – | – | –
2 | CCCc1nc(C)c2c(=O)[nH]c(-c3cc(S(=O)(=O)N(C)CC(=O)N4CCN(C)CC4)ccc3OCC)nn12 [Compound 7] | 4.35 | 35.6 | – | – | – | 2.6 | > 100 | > 100 | 0.18 | – | 0.155 | – | – | – | – | – | – | – | –
3 | CCCc1nc(C)c2c(=O)[nH]c(-c3cc(S(=O)(=O)N(C)CC(=O)N(CC)CC)ccc3OCC)nn12 [Compound 8] | 42 | 77.4 | – | – | – | 19 | > 100 | > 100 | 21.8 | – | 0.024 | – | – | – | – | – | – | – | –
4 | CCCc1nc(C)c2c(=O)[nH]c(-c3cc(S(=O)(=O)N(CC)CC(=O)N(CC)CC)ccc3OCC)nn12 [Compound 10] | – | – | – | – | – | – | 77.9 (≈ 146 µM) | 78.5 (≈ 147 µM) | 67 | – | – | – | – | – | – | – | – | – | –
5 | CCCc1nc(C)c2c(=O)[nH]c(-c3cc(S(=O)(=O)N(C)[C@@H](C)C(=O)NC)ccc3OCC)nn12 [Compound 13] | – | – | – | – | – | – | 69.4 (≈ 141 µM) | 74.6 (≈ 152 µM) | 0.42 | – | – | 94000 | – | – | 100000 | – | – | – | –
6 | CCCc1nc(C)c2c(=O)[nH]c(-c3cc(S(=O)(=O)N(C)[C@H](C)C(=O)NC)ccc3OCC)nn12 [Compound 14] | – | – | – | – | – | – | 62.6 (≈ 128 µM) | 64 (≈ 130 µM) | 0.47 | – | – | 88000 | – | – | 100000 | – | – | – | –
7 | CCCc1nc(C)c2c(=O)[nH]c(-c3cc(S(=O)(=O)N(C)C(C)(C)C(=O)NC)ccc3OCC)nn12 [Compound 15] | 6.8 | 34.9 | – | – | – | – | – | – | 0.25 | – | – | 95000 | – | – | 100000 | – | – | – | –
8 | CCCc1nc(C)c2c(=O)[nH]c(-c3cc(S(=O)(=O)N(C)C4(C(=O)N(C)C)CC4)ccc3OCC)nn12 [Compound 16] | – | – | – | – | – | – | 74.7 (≈ 145 µM) | 82.5 (≈ 160 µM) | 3.41 | – | – | 100000 | – | – | 100000 | – | – | – | –
9 | CCCc1nc(C)c2c(=O)[nH]c(-c3cc(S(=O)(=O)NC(C)C(=O)N(C)C)ccc3OCC)nn12 (stereo not shown) [Compound 17] | – | – | – | – | – | – | 70 (≈ 143 µM) | 78.4 (≈ 160 µM) | 0.26 | – | – | 100000 | 0.66 | 0.66 | 100000 | – | – | – | –
10 | CCCc1nc(C)c2c(=O)[nH]c(-c3cc(S(=O)(=O)NC(C)C(=O)N(C)C)ccc3OCC)nn12 (stereo not shown) [Compound 18] | – | – | – | – | – | – | – | – | – | – | – | 100000 | 0.36 | 0.36 | 100000 | 70.3 | 75.75 | 0.18 10^−6 cm/s | –
11 | CCCc1nc(C)c2c(=O)[nH]c(-c3cc(S(=O)(=O)NC(C)(C)C(=O)N(C)C)ccc3OCC)nn12 [Compound 19] | 2.43 | 33 | – | – | – | – | > 100 | 7.1 (≈ 14.1 µM) | 0.17 | – | – | 100000 | – | – | 100000 | – | – | – | –
12 | CCCc1nc(C)c2c(=O)[nH]c(-c3cc(S(=O)(=O)NC)ccc3OCC)nn12 [Compound 20] | 24.3 | 53 | 1010 | 28 | 4.18 | 16.23 | > 100 | > 100 | 0.37 | 0.00384 | 0.0397 | 100000 | 0.24 | 0.243 | 100000 | – | – | – | 1

More lines, main results first:

Row | Papp A→B (Caco-2 permeability) [×10⁻⁶ cm/s] | Papp B→A (Caco-2 permeability) [×10⁻⁶ cm/s] | IC50 (PDE-3) [nM] | IC50 (PDE-1) [nM] | IC50 (PDE-6) [nM] | Non-Spec Binding (Non-specific binding) [%] | solubility (Solubility; [3]) [µg/mL] | solubility (Solubility; [4]) [µg/mL] | Papp (PAMPA permeability; Hex, read-out: PAMPA Hex) [×10⁻⁶ cm/s] | Papp (PAMPA permeability; Lec, read-out: PAMPA Lec) [×10⁻⁶ cm/s] | fraction unbound (Protein binding) | Compound | Cytotox GC50 (Cytotoxicity GC50) [nM] | IC50 (PDE5 [1]) [nM] | IC50 (PDE5 [2]) [nM] | CC50 (Cytotoxicity LC50) [nM] | Solubility pH 2.7 (Solubility; pH 2.7) [ug/mL] | Solubility pH 7.4 (Solubility; pH 7.4) [ug/mL] | PAMPA Hex (PAMPA permeability; Hex) | half-life (RLM half-life) [h]
13 | 17.5 | 48.9 | 986 | 25 | 3.5 | 11.07 | > 100 | 96.1 (≈ 196 µM) | 5.49 | 0.128 | 0.086 | CCCc1nc(C)c2c(=O)[nH]c(-c3cc(S(=O)(=O)N(C)CC(=O)N(C)C)ccc3OCC)nn12 [Compound 1] | 76700 | – | – | – | – | – | – | –
14 | 33.3 | 61.3 | – | – | – | 20.7 | > 100 | > 100 | 18.2 | – | 0.032 | CCCc1nc(C)c2c(=O)[nH]c(-c3cc(S(=O)(=O)N(C)[C@H](C)C(=O)N(C)C)ccc3OCC)nn12 [Compound 2] | 94600 | – | – | – | – | – | – | –
15 | 28.9 | 58.5 | 412 | 10 | 1.7 | 14.3 | > 100 | > 100 | 9.11 | – | 0.076 | CCCc1nc(C)c2c(=O)[nH]c(-c3cc(S(=O)(=O)N(C)C(C)(C)C(=O)N(C)C)ccc3OCC)nn12 [Compound 3] | 100000 | – | – | – | – | – | – | –
16 | 19.4 | 60.2 | – | – | – | – | 100 (≈ 194 µM) | 93 (≈ 180 µM) | 13.2 | – | – | CCCc1nc(C)c2c(=O)[nH]c(-c3cc(S(=O)(=O)N4CCCC4C(=O)N(C)C)ccc3OCC)nn12 (stereo not shown) [Compound 5] | – | – | – | – | – | – | – | –
17 | 11.2 | 55.1 | – | – | – | 7.3 | > 100 | > 100 | 0.78 | – | 0.084 | CCCc1nc(C)c2c(=O)[nH]c(-c3cc(S(=O)(=O)N(C)CC(=O)N4CCOCC4)ccc3OCC)nn12 [Compound 6] | – | – | – | – | – | – | – | –
18 | 2.33 | 11.3 | – | – | – | 9.8 | > 100 | > 100 | 0.03 | – | 0.246 | CCCc1nc(C)c2c(=O)[nH]c(-c3cc(S(=O)(=O)N(C)CC(=O)N(C)CCN(C)C)ccc3OCC)nn12 [Compound 9] | – | – | – | – | – | – | – | –
19 | 11.4 | 63.3 | – | – | – | 0 | 66.7 (≈ 125 µM) | 70.9 (≈ 133 µM) | 1.45 | – | 0.042 | CCCc1nc(C)c2c(=O)[nH]c(-c3cc(S(=O)(=O)N(C)CC(=O)N(C)CCOC)ccc3OCC)nn12 [Compound 11] | – | 0.15 | 0.15 | – | – | – | – | –
20 | 33.4 | 50.4 | – | – | – | 30.7 | 96 (≈ 190 µM) | 100 (≈ 198 µM) | 13.9 | – | 0.058 | CCCc1nc(C)c2c(=O)[nH]c(-c3cc(S(=O)(=O)N(C)[C@@H](C)C(=O)N(C)C)ccc3OCC)nn12 [Compound 12] | 99300 | – | – | – | – | – | – | –
21 | 5.15 | 31.4 | – | – | – | – | > 100 | > 100 | 0.24 | – | – | CCCc1nc(C)c2c(=O)[nH]c(-c3cc(S(=O)(=O)N(C)CC(=O)NC)ccc3OCC)nn12 [Compound 21] | – | – | – | – | – | – | – | –
